Data from ChEMBL document CHEMBL3046671, “Molecular design, synthesis and biological activities of amidines as new ketol-acid reductoisomerase inhibitors” (Chin Chem Lett, 2008).
Structures can show the parent of a compound that is named as a salt. Active and inactive are the calls of the source. The calls are words filed in the database; no cut-off is given here.

How the values were obtained:
[1] = molecular target: Ketol-acid reductoisomerase, chloroplastic (Oryza sativa subsp. japonica, UniProt Q65XK0); test: Inhibition of Oryza sativa KARI (rice)
Sequence of Ketol-acid reductoisomerase, chloroplastic (Q65XK0 whole entry): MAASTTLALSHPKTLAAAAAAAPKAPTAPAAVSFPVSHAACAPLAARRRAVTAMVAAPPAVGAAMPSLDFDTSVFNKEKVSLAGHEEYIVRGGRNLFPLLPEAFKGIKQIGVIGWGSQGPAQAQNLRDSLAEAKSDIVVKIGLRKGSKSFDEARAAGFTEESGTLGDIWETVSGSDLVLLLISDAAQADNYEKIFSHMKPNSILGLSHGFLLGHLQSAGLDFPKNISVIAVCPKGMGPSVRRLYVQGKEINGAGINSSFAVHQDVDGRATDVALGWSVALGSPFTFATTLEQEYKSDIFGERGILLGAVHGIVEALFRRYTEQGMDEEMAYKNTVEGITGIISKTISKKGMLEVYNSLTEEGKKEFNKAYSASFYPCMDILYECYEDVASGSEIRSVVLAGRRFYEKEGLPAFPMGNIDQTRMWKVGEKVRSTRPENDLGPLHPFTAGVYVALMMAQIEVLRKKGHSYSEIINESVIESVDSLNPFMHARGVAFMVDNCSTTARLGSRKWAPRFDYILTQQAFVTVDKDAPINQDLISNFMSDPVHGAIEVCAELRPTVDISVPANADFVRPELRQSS

[2] = test system: Echinochloa crus-galli; test: Herbicidal activity against Echinochloa crus-galli (barnyard grass) assessed as inhibition at 10 ug/ml by barnyardgrass cup test; assay type: functional
[3] = test system: Brassica napus; test: Herbicidal activity against Brassica napus (oilseed rape) assessed as inhibition at 10 ug/ml by rape toot test; assay type: functional
[4] = test system: Echinochloa crus-galli; test: Herbicidal activity against Echinochloa crus-galli (barnyard grass) assessed as inhibition at 100 ug/ml by barnyardgrass cup test; assay type: functional
[5] = test system: Brassica napus; test: Herbicidal activity against Brassica napus (oilseed rape) assessed as inhibition at 100 ug/ml by rape toot test; assay type: functional
[6] = molecular target: T1, Ketol-acid reductoisomerase (NADP(+)) (Escherichia coli (strain K12), UniProt P05793); test: Inhibition of Escherichia coli KARI
T1 sequence (P05793 whole entry): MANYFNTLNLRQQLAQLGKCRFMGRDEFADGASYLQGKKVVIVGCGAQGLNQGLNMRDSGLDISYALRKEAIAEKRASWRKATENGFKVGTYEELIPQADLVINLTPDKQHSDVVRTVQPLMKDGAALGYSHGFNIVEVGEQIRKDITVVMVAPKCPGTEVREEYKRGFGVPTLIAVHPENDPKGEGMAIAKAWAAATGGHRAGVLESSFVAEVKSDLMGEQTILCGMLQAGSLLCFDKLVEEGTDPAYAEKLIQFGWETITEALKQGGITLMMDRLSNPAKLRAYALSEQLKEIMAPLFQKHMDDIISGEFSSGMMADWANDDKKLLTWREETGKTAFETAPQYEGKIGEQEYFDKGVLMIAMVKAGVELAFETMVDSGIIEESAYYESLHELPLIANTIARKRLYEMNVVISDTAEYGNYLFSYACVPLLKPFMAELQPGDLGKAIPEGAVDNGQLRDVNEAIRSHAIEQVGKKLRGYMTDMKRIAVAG

Row | SMILES | Ki [1] [µM] | Ki [6] [µM] | inhibition at 10 µg/mL [2] [%] | inhibition at 10 µg/mL [3] [%] | inhibition at 100 µg/mL [4] [%] | inhibition at 100 µg/mL [5] [%] | inhibition [2]
1 | N=C(N)c1ccc(OCc2ccc(Cl)cc2Cl)cc1 | 142 |  | 21.8 | 33.7 | 62.8 | 95.6 | 
2 | N=C(N)c1ccc(OCc2cccc(Cl)c2)cc1 | 213 |  | 21.5 | 31.9 | 56.8 | 95.2 | 
3 | N=C(N)c1ccc(OCc2ccc(Cl)cc2)cc1 | 411 |  |  |  |  |  | 
4 | N=C(N)c1ccc(OCc2ccccc2F)cc1 | 965 |  |  |  |  |  | 
5 | N=C(N)c1ccc(OCc2ccccn2)cc1 | > 649 |  |  |  |  |  | 
6 | C=CCOc1ccc(C(=N)N)cc1 [4-(ALLYLOXY)BENZIMIDAMIDE HYDROCHLORIDE] | > 1710 |  |  |  |  |  | 
7 | CCCCOc1ccc(C(=N)N)cc1 [4-BUTOXYBENZIMIDAMIDE HYDROCHLORIDE] | 3530 |  |  |  |  |  | 

The next lines start with results.

Row | Ki [1] [µM] | Ki [6] [µM] | SMILES | inhibition at 10 µg/mL [2] [%] | inhibition at 10 µg/mL [3] [%] | inhibition at 100 µg/mL [4] [%] | inhibition at 100 µg/mL [5] [%] | inhibition [2]
8 | > 1380 |  | N=C(N)c1ccc(OCc2ccccc2)cc1 [4-(BENZYLOXY)BENZIMIDAMIDE HYDROCHLORIDE] |  |  |  |  | 
9 | 61 |  | CCCCCCCOc1ccc(C(=N)N)cc1 [4-(HEPTYLOXY)BENZIMIDAMIDE HYDROCHLORIDE] | 20.1 | 30.1 | 53 | 96.3 | 
10 | 190 |  | CCCCCCOc1ccc(C(=N)N)cc1 [4-(HEXYLOXY)BENZIMIDAMIDE HYDROCHLORIDE] | 5.3 | 20.4 | 52.1 | 94 | 
11 | 1360 |  | CCCCCOc1ccc(C(=N)N)cc1 [4-(PENTYLOXY)BENZIMIDAMIDE HYDROCHLORIDE] |  |  |  |  | 
12 | > 1900 |  | CCOc1ccc(C(=N)N)cc1 [4-ETHOXYBENZIMIDAMIDE HYDROCHLORIDE] |  | 18.5 | 24.4 | 57.1 | inactive
13 | > 1670 |  | CC(C)Oc1ccc(C(=N)N)cc1 [4-ISOPROPOXYBENZIMIDAMIDE HYDROCHLORIDE] |  |  |  |  | 
14 | > 2080 |  | COc1ccc(C(=N)N)cc1 [4-METHOXYBENZIMIDAMIDE HYDROCHLORIDE] | 16.2 | 6.9 | 18.3 | 48.5 | 
15 | > 1670 |  | CCCOc1ccc(C(=N)N)cc1 [4-PROPOXYBENZIMIDAMIDE HYDROCHLORIDE] |  |  |  |  | 
16 | 350 | 382 | N=C(N)c1ccc(OCCCCCOc2ccc(C(=N)N)cc2)cc1 [PENTAMIDINE ISETHIONATE] | 12.6 | 22.9 | 59.6 | 90.9 | 
